According to US20140309184A1, “METHODS AND COMPOSITIONS FOR THE TREATMENT OF OVARIAN CANCER” (UNIVERSITY OF SOUTH ALABAMA, priority 2011, published 2014):

Assays:
Type in all cases: cell-based
[1] = system: TOV112D cells; assay: MTS IC50 dosage calculation with BMS-833923; conditions: Homo sapiens; TOV112D monolayer, MTS up to 72 hrs
Description: (§1) Ovarian cancer cells were seeded at a density of 4,000 cells/well in 96 well plates. The following day, fresh medium was added to each well and they were treated with BMS-833923 at a dose-escalation at the following doses 0, 0.1, 0.25, 0.5, 1, 2, 5, 10, and 20 μM. These cells were kept at 37° C. in a humidified 5% CO2 atmosphere. Every 24 hours, 20 μl/well of MTS reagent were added in 96 well plates and stored in 37° C. incubator for at least 3 hours followed by absorbance reading at 490 nm. The assay was carried out up to 72 hrs to obtain the IC50 concentrations of each agent.
(§2) IC50 dosage determinations were performed as described above. […] BMS-833923 IC50 doses were used for all related experiments for specific ovarian cancer cell lines.

[2] = system: OV90 cells; assay: MTS IC50 dosage calculation with BMS-833923; conditions: Homo sapiens, OV-90; OV90 monolayer, MTS up to 72 hrs
Description: as §1, §2

[3] = system: ES2 cells; assay: MTS IC50 dosage calculation with BMS-833923; conditions: Homo sapiens, ES-2; ES2 monolayer, MTS up to 72 hrs
Description: as §1, §2

[4] = system: SKOV3 cells; assay: MTS IC50 dosage calculation with BMS-833923; conditions: Homo sapiens, SK-OV-3; SKOV3 monolayer, MTS up to 72 hrs
Description: as §1, §2

[5] = system: SKOV3 cells; assay: MTS cell survival with BMS-833923 plus chemotherapy, Calcusyn combination index
Description: An MTS in vitro assay was performed using chemotherapy agents commonly used for ovarian cancer (carboplatin, paclitaxel, gemcitabine, topotecan and liposomal doxorubicin) with or without BMS-833923. Ovarian cancer cells ES2, SKOV3, OV90 and TOV112D were seeded at a density of 4,000 cells/well in 96-well tissue culture plates. The following day, fresh medium was added to each well and treated with IC50 concentrations of BMS-833923 as well as the aforementioned chemotherapies and kept at 37° C. in a humidified 5% CO2 atmosphere. Every 24 hr, 20 μl/well of MTS reagent were added in 96 well plates and stored in 37° C. incubator for about 3 hr followed by absorbance reading at 490 nm. The assay was carried out up to 72 hrs at various concentrations described herein.
With a cross-diagonal multidrug treatment design, the combination index (CI) was calculated to determine mathematical synergy using the median effect method per Calcusyn software (Biosoft, Ferguson, Mo.). This software utilizes multiple drug dose-effect calculations using the Median Effect methods (Chou T. C., et al., Trends Pharmacol. Sci. 4, 450-454). […] The fraction of cells affected (Fa) by carboplatin and BMS-833923 was used to calculate dose response curves and the CI. Statistically Calcusyn quantifies phenomena such as synergism vs. additive effects as well as inhibition (antagonism). Calcusyn software defines synergy as a CI value<1 with the extent of synergism stratified as follows: Possible Synergy: 1.0-0.91; Moderate Synergy: […]; and Clear Synergy: 0.7-0.3. A CI=1 may be indicative of additivity; a CI>1 may be indicative of antagonism.
Combination indices were calculated to determine mathematical synergy using the median effect method per Calcusyn software (Biosoft, Ferguson, Mo.) as described above. Monolayers of SKOV3 cells were contacted with various chemotherapeutic agents, and BMS-833923 in combination with various chemotherapeutic agents. The chemotherapeutic agents included Carboplatin, Taxol™, Gemzar™, Topotecan (Hycamtim™), and Doxil™. The percentage survival of the contacted SKOV3 cells was measured over 72 hours. Synergistic effects were calculated statistically using Calcusyn™ Software. A combination index (CI) less than 1 indicates synergy; a CI equal to 1 indicates additivity; a CI greater than 1 indicated antagonism.
Combination indices were calculated to determine mathematical synergy using the median effect method per Calcusyn software (Biosoft, Ferguson, Mo.) as described above. […] Per prior definitions this represents Clear Synergy defined as CI<0.7. This level of synergy would result in a 2- to 14-fold reduction of carboplatin dose required with the addition of BMS-833923. (Table 5 and FIG. 9).
The dose reduction index (DRI) was determined for experimental values using the Calcusyn software package, with the relative CI and the fraction affected to determine the relative reduction in a dose to achieve similar effects with a single agent (Table 6).

[6] = system: A2780/CP70 cells; assay: Carboplatin IC50 with and without BMS-833923 in platinum resistant cell line; conditions: A2780/CP70, addition of BMS-833923 at 5 μM
Description: Considering the synergy described above and that the Hedgehog pathway is associated with cancer stem cell properties. In the effect of BMS-833923 plus carboplatin in two isogenic ovarian cancer cell lines specifically designed to evaluate platinum resistance mechanisms: A2780 (platinum sensitive) & A2780/CP70 (platinum resistant). Each cell line was evaluated to determine the IC50 dose of carboplatin to ensure a discernable difference in platinum treatment could be determined (FIG. 11A). The A2780/CP70 cell line required a 4-fold increase in carboplatin to reach IC50 (A2780/CP70=400 μM; A2780=100 μM). […] (FIG. 11B and FIG. 11C).

## CNCc1ccc(C)c(NC(=O)c2ccc(Nc3nc(-c4ccccc4)c4ccccc4n3)cc2)c1 [BMS-833923, N-{2-methyl-5-[(methylamino)methyl]phenyl}-4-[(4-phenylquinazolin-2-yl)amino]benzamide]
[1]
  IC50: 5 µM
[2]
  IC50: 4 µM
[3]
  IC50: 4 µM
[4]
  IC50: 7.5 µM
[5]; fraction affected 16.6%
  BMS-833923 DRI: 2.314
  BMS-833923 single agent dose to achieve the fraction affected: 9.2573 µM
[5]; fraction affected 29.1%
  BMS-833923 DRI: 3.223
  BMS-833923 single agent dose to achieve the fraction affected: 12.8916 µM
[5]; fraction affected 38.4%
  BMS-833923 DRI: 3.120
  BMS-833923 single agent dose to achieve the fraction affected: 15.6024 µM
[5]; fraction affected 41.8%
  BMS-833923 DRI: 3.330
  BMS-833923 single agent dose to achieve the fraction affected: 16.6516 µM
[6]
  reduction of platinum needed to achieve the same cell death: 10 fold
